Test results published in US9650407B2, “Reprogramming of cellular adhesion” (The Regents of the University of California, priority 2011, dated 2017).

What was measured:
[1] = tested on: heterogeneous MCF10ARas/MCF10AWT microtissues; experiment: Emergent phenotypes in heterogeneous MCF10ARas/MCF10AWT microtissues in 3D lrECM culture; type: cell-based; conditions: over 24 hr in culture vs DMSO control; LY294002 20 μM, PD325901 200 nM, Sorafenib 10 μM, PIK-90 2 μM; DNase added immediately after sorting
Experimental: Sorafenib was a gift from Kevan Shokat (UCSF0 and used at 10 μM. PIK-90 was purchased from Calbiochem and used at 2 μM. High activity DNase was purchased from Ambion. Ethidium homodimer-1 was purchased from Invitrogen and used at 1 μM.
The following antibodies were used for western blot: E-cadherin (BD Biosciences), tubulin (Sigma-Aldrich), phospho-Erk and phospho-Akt (Cell Signaling Technology), pan-Ras (Calbiochem), goat anti-mouse-HRP, and goat anti-rabbit-HRP (Thermo Scientific). The following antibodies were used for immunofluorescent staining: GM130, β-catenin (BD Biosciences), α6-integrin, laminin-5 (Millipore), cleaved caspase-3 (Cell Signaling Technology), Ki-67 (Sigma-Aldrich), gp135 (a gift from Keith Mostov, UCSF), Alexa Fluor 488- and 568-conjugated goat anti-mouse, anti-rat, and anti-rabbit antibodies (Invitrogen). F-actin was stained with Alexa Fluor 488- or 568-conjugated phalloidin (Invitrogen). LY294002 and PD325901 (Calbiochem) were used at 20 μM and 200 nM, respectively. TURBO DNase (Invitrogen) was used at a concentration of 10 U/ml.
Time-lapse images of aggregates were acquired on a Zeiss 200M inverted fluorescence microscope equipped with an XCite […] light source and a Hamamatsu camera. Field positions were programmed into Slidebook 5.0 software, and images were acquired at 30 min intervals. Samples were maintained in a humidified chamber at 37° C. and 5% CO2. Phenotypes were scored in Slidebook 5.0 software after acquisition. Microtissues that merged with other microtissues or single cells were not scored due to confounding effects on cell motility.
Apoptotic cells were excluded from phenotype quantification, as judged by cell morphology (FIG. 27, Panels A-E) or uptake of ethidium homodimer-1 (FIG. 28, Panels C, G, and H). Extruding microtis sues contained a single H2B-GFP-expressing cell pushed beyond the phase-bright boundary formed by the surrounding cells. Multicellular protrusions began with a single H2B-GFP-expressing cell that led the translation of the surrounding cells without becoming disconnected from the microtissue. H2B-GFP-expressing cells that broke away from tissues and moved alone were scored as protruding cells due to their altered morphology and motility.

[2] = tested on: Jurkat cells; experiment: Time-lapse imaging of membrane dynamics of DNA-immobilized cells; type: cell-based; conditions: 1 uM latrunculin A; for membrane tubules from the cell surface: subsequent 100 uM nocodazole; for membrane microspikes: 100 uM nocodazole, 10 ng/mL PMA and 1.3 uM ionomycin
Experimental: Cells incorporating lipid-DNA were allowed to settle onto patterned glass within a PDMS-based flow cell for 30 minutes. Only cells hybridized to the surface via DNA were retained when the surface was washed with PBS. Patterned cells were imaged at 37° C. on a Zeiss Axiovert 200M at 200× or 400× magnification using phase contrast settings.
Cells were incubated with 1 uM latrunculin A either 10 (after nocodazole treatment) or 40 minutes prior to timelapse imaging. Cells were incubated with 10 ng/mL phorbol 12-myristate 13-acetate (PMA) and 1.3 uM ionomycin 4 hours prior to lipid incorporation. Cells were incubated with 100 uM nocodazole, with or without addition of latrunculin, 10 minutes prior to imaging.
Using ImageJ, cells were picked automatically from 20× fields of view and subsequently binarized. For each time point, scanning down the y-axis, the horizontal slice with the greatest width was identified. For each cell, the coefficient of variation was calculated for this set of widths, and this statistic was used to characterize each cell's membrane motility for binning. Error bars signify standard error.

SMILES | formation/frequency of motile multicellular protrusions [1] | frequency of basal extrusions [1] | membrane tubules from the cell surface [2] | membrane microspikes [2]
COc1ccc2c(c1OC)N=C(NC(=O)c1cccnc1)N1CCN=C21 [PIK-90] | reduced | slightly increasing |  | 
CNC(=O)c1cc(Oc2ccc(NC(=O)Nc3ccc(Cl)c(C(F)(F)F)c3)cc2)ccn1 [Sorafenib] | blocked | blocked |  | 
O=C(NOC[C@H](O)CO)c1ccc(F)c(F)c1Nc1ccc(I)cc1F [PD325901] | blocked | blocked |  | 
COC(=O)Nc1nc2ccc(C(=O)c3cccs3)cc2[nH]1 [nocodazole] |  |  | retraction of the membrane tubules | completely blocked
C/C1=C/C(=O)O[C@@H]2C[C@@H](CC[C@H](C)/C=C\C=C\CC1)O[C@@](O)([C@@H]1CSC(=O)N1)C2 [latruncluin A, latrunculin A] |  |  | rapid growth of long tubules | blocked the formation
